For one experiment, the target named is T1, Recombinant human GSK3β (Homo sapiens, UniProt P49841).
T1 construct: His-tag; made in house; host or cells: Sf9 insect cells / baculovirus
T1 sequence (P49841 whole entry): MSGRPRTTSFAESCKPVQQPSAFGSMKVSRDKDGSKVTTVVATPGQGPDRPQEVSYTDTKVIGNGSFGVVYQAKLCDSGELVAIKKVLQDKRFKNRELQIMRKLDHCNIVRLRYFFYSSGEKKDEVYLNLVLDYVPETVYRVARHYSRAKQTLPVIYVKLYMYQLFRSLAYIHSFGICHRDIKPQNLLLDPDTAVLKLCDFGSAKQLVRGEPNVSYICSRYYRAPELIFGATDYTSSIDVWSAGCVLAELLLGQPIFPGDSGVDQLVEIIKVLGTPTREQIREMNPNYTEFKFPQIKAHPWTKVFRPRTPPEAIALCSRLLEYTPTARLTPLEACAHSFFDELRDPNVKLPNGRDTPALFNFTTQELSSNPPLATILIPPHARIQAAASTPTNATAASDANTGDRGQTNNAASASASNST
Nature of the experiment: GSK-3β (Glycogen Synthase Kinase) cell free enzyme assay. The class given is biochemical. Conditions: 1 μM; Examples 157-199; read-out: Percent inhibition at 1 μM. The protocol: Assay Protocol for GSK-3β (Glycogen Synthase Kinase) in a Cell Free Enzyme Assay
Recombinant human GSK3β was expressed in SF9/Baculo virus cells. His-tag protein was purified by affinity chromatography to a Ni-NTA Superflow column. Enzyme activity was assayed as the incorporation of [33P] from the gamma phosphate of [33P]ATP (PerkinElmer) into biotinylated peptide substrate bio-LC-S-R-H-S-S-P-H-Q-pS-E-D-E-E-E-OH (Anaspec). Reactions were carried out in a buffer containing 8 mM MOPS (pH 7.0), 10 mM Magnesium Acetate, 0.2 mM EDTA, 1 mM DTT and 2 uM cold ATP. The 33P-ATP was added for 0.025 uCi/well (120 uL) and the final concentration of substrate was 1.0 uM. Enzyme was preincubated with test agent for 30 minutes at room temperature followed by initiation of the reaction by the addition of substrate mix. Incubations were carried out at RT for 60 min. Reactions were stopped by addition of 0.66 volume of buffer containing: 12.5 mM EDTA, 0.25% Triton-X 100, 125 uM ATP, and 6.2 mg/ml streptavidin coated SPA beads (Amersham) in PBS without Ca or Mg. Radioactivity associated with the beads was quantified by scintillation counting of CPM in a Trilux counter (PerkinElmer).
Examples 42 to 60 were prepared using the analogous procedure described to prepare Example 41, substituting the appropriate starting material (Examples 1 to 35) and coupling with the appropriate acid. The assay protocol used is the percent inhibition at 1 μM for GSK-3β in the cell free enzyme assay described above.
By inhibition is commonly meant the change of the read-out against control, counted positive when it falls. Regarding `CCN(c1nc(-c2ccncc2)cc(=O)n1C)C1CCCN(S(=O)(=O)Cc2ccccc2)CC1` (stereo not drawn) [Example 197, 2-{[1-(Benzylsulfonyl)azepan-4-yl](ethyl)amino}-3-methyl-6-pyridin-4-ylpyrimidin-4(3H)-one], the inhibition at 1 µM stood at 93%.
Still for that read-out and setting: under `Cn1c(NC2CCCCN(S(=O)(=O)c3ccccc3)C2)nc(-c2ccncc2)cc1=O` (stereo not drawn) [Example 173, 3-Methyl-2-{[1-(phenylsulfonyl)azepan-3-yl]amino}-6-pyridin-4-ylpyrimidin-4(3H)-one] stands 51%.

Still in this experiment, the particulars now being: 1 μM; Examples 236-262; read-out: Percent inhibition at 1 μM.
As for `Cn1c(NC2CCN(Cc3ccccc3)C2)nc(-c2ccncc2)cc1=O` (stereo not drawn) [Example 236, 2-[(1-Benzylpyrrolidin-3-yl)amino]-3-methyl-6-pyridin-4-ylpyrimidin-4(3H)-one], the inhibition at 1 µM is 63%.
Still for that read-out and setting: under `CN1CC(CNc2nc(-c3ccncc3)cc(=O)n2C)C1` [Example 249, 3-Methyl-2-{[(1-methylazetidin-3-yl)methyl]amino}-6-pyridin-4-ylpyrimidin-4(3H)-one] stands 33%.
Still for that read-out and setting: under `CN(c1nc(-c2ccncc2)cc(=O)n1C)[C@@H]1CC[C@H]2N(Cc3ccccc3)CC[C@@]2(C)C1` [Example 258, 2-{[(3a,S5,R7,aR)-1-Benzyl-3a-methyloctahydro-1H-indol-5-yl](methyl)amino}-3-methyl-6-pyridin-4-ylpyrimidin-4(3H)-one] stands 43%.

The experiment is the same for the next values; noted with them: 1 μM; GSK-3β cell free enzyme assay; Examples 42-60; read-out: Percent inhibition at 1 μM.
With `CCN(c1nc(-c2ccncc2)cc(=O)n1C)C1CCN(C(C)=O)CC1` [Example 57, 2-[(1-Acetylpiperidin-4-yl)(ethyl)amino]-3-methyl-6-pyridin-4-ylpyrimidin-4(3H)-one], the inhibition at 1 µM was 93%.

Staying with this experiment, now noted: cell free enzyme assay; Examples 1-35.
The IC50 is the point on the concentration scale where inhibition reaches its midpoint. In the case of `Cn1c(N[C@@H]2CC[C@@H](NC(=O)OC(C)(C)C)C2)nc(-c2ccncc2)cc1=O` [Example 21, tert-butyl {(1R,3R)-3-[(1-Methyl-6-oxo-4-pyridin-4-yl-1,6-dihydropyrimidin-2-yl)amino]cyclopentyl} carbamate], the 50% inhibitory concentration (IC50) came out at 52.5 nM.
With `Cn1c(NC2CCCCN(C(=O)OC(C)(C)C)C2)nc(-c2ccncc2)cc1=O` (stereo not drawn) [Example 20, tert-butyl 3-[(1-Methyl-6-oxo-4-pyridin-4-yl-1,6-dihydropyrimidin-2-yl)amino]azepane-1-carboxylate], the IC50 came to 24.1 nM.
In the case of `Cn1c(NC2CCCN(C(=O)OC(C)(C)C)CC2)nc(-c2ccncc2)cc1=O` (stereo not drawn) [Example 8, tert-butyl 4-[(1-Methyl-6-oxo-4-pyridin-4-yl-1,6-dihydropyrimidin-2-yl)amino]azepane-1-carboxylate], the IC50 was 9.1 nM.
Turning to `Cn1c(N2[C@@H]3CC[C@H]2CC(n2cnc4ccccc42)C3)nc(-c2ccncc2)cc1=O` (stereo partly drawn) [Example 16, 2-[(1R,5S)-3-(1H-Benzimidazol-1-yl)-8-azabicyclo[3.2.1]oct-8-yl]-3-methyl-6-pyridin-4-ylpyrimidin-4(3H)-one], the IC50 worked out at 20.5 nM.
Regarding `Cn1c(NC2CCN(C(=O)OC(C)(C)C)C2)nc(-c2ccncc2)cc1=O` (stereo not drawn) [Example 24, tert-butyl 3-[(1-Methyl-6-oxo-4-pyridin-4-yl-1,6-dihydropyrimidin-2-yl)amino]pyrrolidine-1-carboxylate], the IC50 stood at 43 nM.
As for `Cn1c(N2CC[C@@H]3CN(C(=O)OC(C)(C)C)C[C@@H]32)nc(-c2ccncc2)cc1=O` [Example 26, tert-butyl (3aR,6aR)-1-(1-Methyl-6-oxo-4-pyridin-4-yl-1,6-dihydropyrimidin-2-yl)hexahydropyrrolo [3,4-b]pyrrole-5(1H)-carboxylate], the IC50 came out at 97 nM.

The experiment is the same for the next values; noted with them: cell free enzyme assay; Examples 62-155.
Consider `CN(c1nc(-c2ccncc2F)cc(=O)n1C)[C@H]1[C@@H]2CN(C(=O)c3ccc(C#N)cc3)C[C@@H]21` [Example 136, 4-{[(1R,5S,6s)-6-{[4-(3-Fluoropyridin-4-yl)-1-methyl-6-oxo-1,6-dihydropyrimidin-2-yl](methyl)amino}-3-azabicyclo[3.1.0]hex-3-yl]carbonyl}benzonitrile], for which the IC50 was determined as 42.6 nM.
Regarding `CN(c1nc(-c2ccncc2F)cc(=O)n1C)[C@H]1[C@@H]2CN(C(=O)c3ccccc3F)C[C@@H]21` [Example 118, 2-{[(1R,5S,6s)-3-(2-Fluorobenzoyl)-3-azabicyclo[3.1.0]hex-6-yl](methyl)amino}-6-(3-fluoropyridin-4-yl)-3-methylpyrimidin-4(3H)-one], the IC50 came to 1.11 nM.
The same measure, in the same setting: the figure for `CCN(c1nc(-c2ccncc2)cc(=O)n1C)C1CCCN(C(=O)c2ccccc2)C1` (stereo not drawn) [Example 73, 2-[(1-Benzoylpiperidin-3-yl)(ethyl)amino]-3-methyl-6-pyridin-4-ylpyrimidin-4(3H)-one] is 345 nM; for `CN(c1nc(-c2ccncc2F)cc(=O)n1C)[C@H]1[C@@H]2CN(C(=O)Cc3ccccc3)C[C@@H]21` [Example 115, 6-(3-Fluoropyridin-4-yl)-3-methyl-2-{methyl[(1R,5S,6s)-3-(phenylacetyl)-3-azabicyclo[3.1.0]hex-6-yl]amino}pyrimidin-4(3H)-one] it is 14.2 nM; for `CN(c1nc(-c2ccncc2F)cc(=O)n1C)[C@H]1[C@@H]2CN(C(=O)c3ccnc(Cl)c3)C[C@@H]21` [Example 112, 2-{[(1R,5S,6s)-3-(2-Chloroisonicotinoyl)-3-azabicyclo[3.1.0]hex-6-yl](methyl)amino}-6-(3-fluoropyridin-4-yl)-3-methylpyrimidin-4(3H)-one] it is 2.63 nM.
Take `Cn1c(NC2CCCN(C(=O)Cc3ccccc3)CC2)nc(-c2ccncc2)cc1=O` (stereo not drawn) [Example 80, 3-Methyl-2-{[1-(phenylacetyl)azepan-4-yl]amino}-6-pyridin-4-ylpyrimidin-4(3H)-one]: the IC50 was found to be 53.8 nM.
Turning to `COc1cccc(CC(=O)N2C[C@@H]3[C@H](C2)[C@H]3N(C)c2nc(-c3ccncc3F)cc(=O)n2C)c1` [Example 101, 6-(3-Fluoropyridin-4-yl)-2-[{(1R,5S,6s)-3-[(3-methoxyphenyl)acetyl]-3-azabicyclo[3.1.0]hex-6-yl}(methyl)amino]-3-methylpyrimidin-4(3H)-one], the IC50 was 13.6 nM.
For the compound `CN(c1nc(-c2ccncc2F)cc(=O)n1C)[C@H]1[C@@H]2CN(C(=O)c3cc(Cl)sc3Cl)C[C@@H]21` [Example 141, 2-[{(1R,5S,6s)-3-[(2,5-Dichloro-3-thienyl)carbonyl]-3-azabicyclo[3.1.0]hex-6-yl}(methyl)amino]-6-(3-fluoropyridin-4-yl)-3-methylpyrimidin-4(3H)-one], the IC50 came to 1.04 nM.
Same read-out and setting: the figure for `CCN(c1nc(-c2ccncc2)cc(=O)n1C)C1CCCN(C(=O)c2ccccc2)CC1` (stereo not drawn) [Example 71, 2-[(1-Benzoylazepan-4-yl)(ethyl)amino]-3-methyl-6-pyridin-4-ylpyrimidin-4(3H)-one] is 36.3 nM; for `CN(c1nc(-c2ccncc2F)cc(=O)n1C)[C@H]1[C@@H]2CN(C(=O)c3cc(Cl)cc(Cl)c3)C[C@@H]21` [Example 116, 2-{[(1R,5S,6s)-3-(3,5-Dichlorobenzoyl)-3-azabicyclo[3.1.0]hex-6-yl](methyl)amino}-6-(3-fluoropyridin-4-yl)-3-methylpyrimidin-4(3H)-one] it is 4.4 nM.
Turning to `CN(c1nc(-c2ccncc2F)cc(=O)n1C)[C@H]1[C@@H]2CN(C(=O)c3ccc(F)c(Cl)c3)C[C@@H]21` [Example 124, 2-{[(1R,5S,6s)-3-(3-Chloro-4-fluorobenzoyl)-3-azabicyclo[3.1.0]hex-6-yl](methyl)amino}-6-(3-fluoropyridin-4-yl)-3-methylpyrimidin-4(3H)-one], the IC50 was found to be 4.58 nM.
Still for that read-out and setting: under `CCCCOc1ccc(C(=O)N2C[C@@H]3[C@H](C2)[C@H]3N(C)c2nc(-c3ccncc3F)cc(=O)n2C)cc1` [Example 123, 2-{[(1R,5S,6s)-3-(4-Butoxybenzoyl)-3-azabicyclo[3.1.0]hex-6-yl](methyl)amino}-6-(3-fluoropyridin-4-yl)-3-methylpyrimidin-4(3H)-one] stands 13.6 nM.

The experiment is the same for the next values; noted with them: cell free enzyme assay; Examples 222-234.
In the case of `CCOC(=O)N1CCC[C@@H](N(C)c2nc(-c3ccncc3)cc(=O)n2C)C1` [Example 231, Ethyl (3R)-3-[methyl(1-methyl-6-oxo-4-pyridin-4-yl-1,6-dihydropyrimidin-2-yl)amino]piperidine-1-carboxylate], the IC50 worked out at 1.15 nM.

Staying with this experiment, now noted: cell free enzyme assay; Examples 265-291.
As to `CN(c1nc(-c2ccncc2F)cc(=O)n1C)[C@H]1[C@@H]2CN(c3nnnn3CC3CC3)C[C@@H]21` [Example 280, 2-[{(1R,5S,6s)-3-[1-(Cyclopropylmethyl)-1H-tetrazol-5-yl]-3-azabicyclo[3.1.0]hex-6-yl}(methyl)amino]-6-(3-fluoropyridin-4-yl)-3-methylpyrimidin-4(3H)-one], the IC50 was 4.48 nM.
For the compound `CCc1cn2nc(N3C[C@@H]4[C@H](C3)[C@H]4N(C)c3nc(-c4ccncc4F)cc(=O)n3C)ccc2n1` [Example 265, 2-{[(1R,5S,6s)-3-(2-Ethylimidazo[1,2-b]pyridazin-6-yl)-3-azabicyclo[3.1.0]hex-6-yl](methyl)amino}-6-(3-fluoropyridin-4-yl)-3-methylpyrimidin-4(3H)-one], the IC50 was determined as 52.4 nM.

The record behind these values is patent publication US20100292205A1, “Pyrimidone Compounds As GSK-3 Inhibitors” (PFIZER INC., priority 2006, published 2010).
